According to patent publication US10757943B2, “Thidiazuron mixtures and uses thereof” (Valent BioSciences LLC, priority 2017, dated 2020):

How the values were obtained:
Assay type in all cases: in vivo
[1] = test system: Red Flame seedless grape vines; experiment: Bud break and shoot length of field-grown Red Flame seedless grape vines (Example 2); conditions: for Broken Buds per plant (Average Buds Broken per Spur): 31 days after treatment; for % Broken Buds / Total Shoot Length: 48 days after treatment
Description: To assess the ability of mixtures of the invention to promote and synchronize bud break these mixtures were applied to field-grown Red Flame seedless grape vines and examined for bud break (initiation of growth) and subsequent shoot development. Thidiazuron, hydrogen cyanamide, 17-0-0 fertilizer, and mixtures thereof were each applied individually or sequentially (co-applied) to the separate spurs of Red Flame seedless grape vines. Plants were evaluated for bud break at 31 days after treatment, for percent bud break and total new shoot length at 48 days after treatment. Results of these evaluations can be seen below in Tables 4 and 5.

Concord grape vines [2] = experiment: Bud break and harvest weight of endo-dormant two-year-old Concord grape vines in the greenhouse (Example 4); conditions: thidiazuron ppm and 17-0-0 % as in label, 15-0-0 65,880 ppm; for Fresh Shoot Weight (g)/Plant: new growth at close of study
From the text: Two-year-old Concord grape vines were purchased commercially. These vines had just lost their leaves and were shipped shortly after they were dug at the nursery. Thus, the vines had not fulfilled their chilling requirement and were considered endo-dormant. The vines were potted individually into one-gallon pots containing ProMix® BX immediately upon receipt and subsequently pruned back to the five proximal buds on the one-year old wood. Within two hours of pruning, treatment solutions were applied using a foam paint brush to the remaining one-year old wood, including the cut end from pruning. Two treatments, water and hydrogen cyanimide, which acted as negative and positive controls, respectively, were included in all studies.
Treatment solutions were made fresh in water and contained 1% (v/v) non-ionic surfactant. In all cases, two treatment solutions were applied to the plants. Where a single component was used for a treatment, the first application solution was water containing surfactant; in the cases where combination treatments were made to the same plant, the first treatment solution was allowed to dry prior to applying the second.
The treated plants were kept in a conventional greenhouse under supplemental lighting. Greenhouse conditions were 65:60° F. Day:Night temperature with a 16:8 hour photoperiod. Relief from dormancy was assessed every two days during the course of the study. Dormancy was considered relieved upon the emergence of a green bud. Both the number of ‘broken buds’ per plant and the date of relief of plants from dormancy were assessed. At the close of the study, new growth was removed from each of the treated plants and weighed.

Concord grape vines [3] = experiment: Bud break and shoot growth of potted dormant Concord grape vines in the greenhouse (Example 1); conditions: for % bud break (vines with at least one bud break): hydrogen cyanamide 10,000 ppm, 17-0-0 197,100 ppm, 15-0-0 239,060 ppm, ACC 1,000 ppm; for % bud break (vines with at least one bud break) / 50% Bud Break to Harvest / Initial to 50% Bud Break / 25% Bud Break (DAT) / 50% Bud Break (DAT): thidiazuron 300 ppm unless label states other; for Dry Weight (g)/25% Bud Break to Harvest (d): combined shoot dry weight at 49 DAT normalised by days from 25% bud break to harvest; for Dry Weight (g)/50% Bud Break to Harvest (d): combined shoot dry weight at 49 DAT normalised by days from 50% bud break to harvest; for Fresh Weight (g)/50% Bud Break to Harvest (d): combined shoot fresh weight at 49 DAT normalised by days from 50% bud break to harvest; for 50% Bud Break to Harvest: harvest at day 49; for Initial to 50% Bud Break: synchrony of bud break; for 25% Bud Break (DAT): time to 25% bud break; for 50% Bud Break (DAT): time to 50% bud break
From the text: An aqueous 50% hydrogen cyanamide solution (Sigma-Aldrich, St. Louis, Mo. USA) was used as the source of hydrogen cyanamide. The commercial product, Dormex® contains 50% hydrogen cyanamide (w/v) in water.
Erger® was used as the source of 15-0-0 fertilizer. (Erger is a registered trademark of Valagro S.P.A., Italy and is available from Helena Chemical Company, Collierville, Tenn., USA). Erger® contains 15% total nitrogen as 3.1% ammoniacal nitrogen, 5.8% nitrate nitrogen and 6.1% urea nitrogen and 3.3% calcium derived from ammonium nitrate, calcium nitrate and urea. As used herein, the term “15-0-0 fertilizer” refers to the Erger® formulation above and all formulations described in International PCT application publication WO/2001/037653A2 by Valagro S.P.A., Italy, which is incorporated, herein, in its entirety.
CAN-17 was used as the source of 17-0-0 fertilizer. CAN-17 contains 17% total nitrogen as 4.6% ammonium nitrogen and […] nitrate nitrogen and 1.3% urea nitrogen and 8.8% calcium derived from ammonium nitrate and calcium nitrate. CAN-17 is available from J.R. Simplot Company (Boise, Id., USA).
To assess the ability of mixtures of the invention to promote and synchronize bud break these mixtures were applied to Concord grape vines and examined for bud break (initiation of growth) and subsequent shoot development. Specifically, 1 year old dormant bare rooted Concord grape vines were planted in pots containing Pro-Mix® BX potting soil (Pro-Mix is a registered trademark of and available from Premier Horticulture Ltd.) and pruned to 5 nodes on a single shoot. Aqueous solutions of thidiazuron, hydrogen cyanamide, 15-0-0 fertilizer, 17-0-0 fertilizer and 1-aminocyclopropane-1-carboxylic acid (“ACC”), and mixtures thereof were each applied individually or sequentially or co-applied to the first-year wood of separate Concord grape vines. Plants were grown in the greenhouse for 49 days and evaluated for percent of vines showing bud break, or relief from dormancy, periodically between 7 days and the conclusion of the experiment. […] At 49 days after treatment (DAT), the plants were sacrificed and measured for total number of flower clusters, total new shoot length, longest new shoot, combined new shoot fresh weight and combined new shoot dry weight. New shoot growth is the growth arising from the dormant buds not including the woody growth that was planted and gave rise to the new growth.
Synergy is calculated by the Abbott method: %Cexp=A+B−(AB/100), where % Cexp is the expected efficacy and in which A and B are the speed of bud break or shoot length or shoot weight given by the single active ingredients. If the ratio between the experimentally observed efficacy of the mixture Cobs and the expected efficacy of the mixture is greater than 1, synergistic interactions are present in the mixture” (Gisi, Synergistic Interaction of Fungicides in Mixtures, The American Phytopathological Society, 86:11, 1273-1279,1996).

[4] = hydrogen cyanamide 10,000 ppm, thidiazuron 300 ppm, 17-0-0 197,100 ppm
[5] = 49 days post treatment, thidiazuron ppm as in label, other concentrations as in Table 1, listed as Thidiazuron (300)
[6] = 49 days post treatment, thidiazuron ppm as in label, other concentrations as in Table 1, listed as Thidiazuron (1000)
[7] = other concentrations as in Table 1, listed as Thidiazuron (1000)
[8] = other concentrations as in Table 1
[9] = other concentrations as in Table 1, listed as 1,000 ppm thidiazuron

## O=C(Nc1ccccc1)Nc1cnns1 [Thidiazuron, 1-Phenyl-3-(1,2,3-thiadiazol-5-yl)urea]
[1]; [4]
  Broken Buds per plant (Average Buds Broken per Spur): 0.1
  % Broken Buds: 80%
  Total Shoot Length: 15.38
[1]; thidiazuron 1,000 ppm
  Broken Buds per plant (Average Buds Broken per Spur): 0.4
  % Broken Buds: 78.1%
  Total Shoot Length: 24.3
Concord grape vines [2]; listed as Thidiazuron (100)
  Fresh Shoot Weight (g)/Plant: 15.53 g
  50% Bud Break (DAT): 33 DAT
  100% Bud Break (DAT): 44 DAT
  Initial to 50% Bud Break: 7
  Number of Buds Broken/Plant: 2
Concord grape vines [2]; listed as Thidiazuron (300)
  Fresh Shoot Weight (g)/Plant: 13.15 g
  50% Bud Break (DAT): 28 DAT
  100% Bud Break (DAT): 48 DAT
  Initial to 50% Bud Break: 14
  Number of Buds Broken/Plant: 2.125
Concord grape vines [2]; listed as Thidiazuron (1000)
  Fresh Shoot Weight (g)/Plant: 22.45 g
  50% Bud Break (DAT): 21 DAT
  100% Bud Break (DAT): 37 DAT
  Initial to 50% Bud Break: 7
  Number of Buds Broken/Plant: 4.5
Concord grape vines [3]; 7 DAT
  % bud break (vines with at least one bud break): 0%
Concord grape vines [3]; 10 DAT
  % bud break (vines with at least one bud break): 0.0%
Concord grape vines [3]; 10 DAT, listed as Thidiazuron (1,000)
  % bud break (vines with at least one bud break): 44.4%
Concord grape vines [3]; 13 DAT
  % bud break (vines with at least one bud break): 0.0%
Concord grape vines [3]; 13 DAT, listed as Thidiazuron (1,000)
  % bud break (vines with at least one bud break): 77.8%
Concord grape vines [3]; 15 DAT
  % bud break (vines with at least one bud break): 0.0%
Concord grape vines [3]; 15 DAT, listed as Thidiazuron (1,000)
  % bud break (vines with at least one bud break): 88.9%
Concord grape vines [3]; 17 DAT
  % bud break (vines with at least one bud break): 11.1%
Concord grape vines [3]; 17 DAT, listed as Thidiazuron (1,000)
  % bud break (vines with at least one bud break): 88.9%
Concord grape vines [3]; 20 DAT
  % bud break (vines with at least one bud break): 11.1%
Concord grape vines [3]; 20 DAT, listed as Thidiazuron (1,000)
  % bud break (vines with at least one bud break): 100.0%
Concord grape vines [3]; 22 DAT
  % bud break (vines with at least one bud break): 22.2%
Concord grape vines [3]; 22 DAT, listed as Thidiazuron (1,000)
  % bud break (vines with at least one bud break): 100.0%
Concord grape vines [3]; 24 DAT
  % bud break (vines with at least one bud break): 33.3%
Concord grape vines [3]; 24 DAT, listed as Thidiazuron (1,000)
  % bud break (vines with at least one bud break): 100.0%
Concord grape vines [3]; 27 DAT
  % bud break (vines with at least one bud break): 33.3%
Concord grape vines [3]; 27 DAT, listed as Thidiazuron (1,000 ppm)
  % bud break (vines with at least one bud break): 100.0%
Concord grape vines [3]; 29 DAT
  % bud break (vines with at least one bud break): 33.3%
Concord grape vines [3]; 29 DAT, listed as Thidiazuron (1,000 ppm)
  % bud break (vines with at least one bud break): 100.0%
Concord grape vines [3]; 31 DAT
  % bud break (vines with at least one bud break): 33.3%
Concord grape vines [3]; 31 DAT, listed as Thidiazuron (1,000 ppm)
  % bud break (vines with at least one bud break): 100.0%
Concord grape vines [3]; 34 DAT
  % bud break (vines with at least one bud break): 33.3%
Concord grape vines [3]; 34 DAT, listed as Thidiazuron (1,000 ppm)
  % bud break (vines with at least one bud break): 100.0%
Concord grape vines [3]; 36 DAT
  % bud break (vines with at least one bud break): 44.4%
Concord grape vines [3]; 36 DAT, listed as Thidiazuron (1,000 ppm)
  % bud break (vines with at least one bud break): 100.0%
Concord grape vines [3]; 38 DAT
  % bud break (vines with at least one bud break): 55.6%
Concord grape vines [3]; 38 DAT, listed as Thidiazuron (1,000 ppm)
  % bud break (vines with at least one bud break): 100.0%
Concord grape vines [3]; 41 DAT
  % bud break (vines with at least one bud break): 55.6%
Concord grape vines [3]; 41 DAT, listed as Thidiazuron (1,000 ppm)
  % bud break (vines with at least one bud break): 100.0%
Concord grape vines [3]; 43 DAT
  % bud break (vines with at least one bud break): 66.7%
Concord grape vines [3]; 43 DAT, listed as Thidiazuron (1,000 ppm)
  % bud break (vines with at least one bud break): 100.0%
Concord grape vines [3]; 49 DAT
  % bud break (vines with at least one bud break): 77.8%
Concord grape vines [3]; 49 DAT, listed as Thidiazuron (1,000 ppm)
  % bud break (vines with at least one bud break): 100.0%
Concord grape vines [3]; 49 days post treatment, thidiazuron ppm as in label, other concentrations as in Table 1
  Total # of Flower Clusters: 0.1
Concord grape vines [3]; [5]
  Combined Shoot Dry Weight: 1.5 g
  Combined Shoot Fresh Weight: 8.2 g
  Longest Shoot Length: 20.1 cm
  Total Shoot Length: 28.3 cm
Concord grape vines [3]; [6]
  Combined Shoot Dry Weight: 6.9 g
  Combined Shoot Fresh Weight: 31.8 g
  Longest Shoot Length: 68.3 cm
  Total Shoot Length: 88.8 cm
Concord grape vines [3]; listed as Thidiazuron (300)
  Dry Weight (g)/25% Bud Break to Harvest (d): 0.06 g/day
  Dry Weight (g)/50% Bud Break to Harvest (d): 0.13 g/day
  Fresh Weight (g)/50% Bud Break to Harvest (d): 0.68 g/day
Concord grape vines [3]; listed as Thidiazuron (1000)
  Dry Weight (g)/25% Bud Break to Harvest (d): 0.17 g/day
  Dry Weight (g)/50% Bud Break to Harvest (d): 0.18 g/day
  Fresh Weight (g)/50% Bud Break to Harvest (d): 0.84 g/day
Concord grape vines [3]; other concentrations as in Table 1, listed as Thidiazuron (300)
  50% Bud Break to Harvest: 12 days
Concord grape vines [3]; [7]
  50% Bud Break to Harvest: 38 days
  Initial to 50% Bud Break: 3 days
  25% Bud Break (DAT): 9 DAT
  50% Bud Break (DAT): 11 DAT
Concord grape vines [3]; other concentrations as in Table 1, listed as thidiazuron
  50% Bud Break to Harvest: 12 days
Concord grape vines [3]; [8]
  Initial to 50% Bud Break: 21 days
  25% Bud Break (DAT): 23 DAT
  50% Bud Break (DAT): 37 DAT
Concord grape vines [3]; [9]
  Initial to 50% Bud Break: 3 days
  50% Bud Break (DAT): 11 DAT
